Assay results as given in patent publication US9796777B2, “Methods of treating malignant tumors” (Canimguide Therapeutics AB, priority 2007, dated 2017).
Values joined by “and” are separate entries in the source; they are usually repeats but may differ in a detail not shown here. Identical values can stand only once.

Assays:
[1] = test system: cell surface receptors of immune cells (ACS); experiment: Adsorption of enzyme fragmented dHSA on affinity column with biotinylated cell surface proteins (ACS), MALDI-TOF ms; assay type: binding, human; settings: for Per cent adsobed: Table 6 A, molecular weight 700-3600 Da
Procedure: Based on the observation that immunoregulatory peptide sequences are present in serum albumin, there is the possibility that other sequences than the epitope of mAb A have immunoregulatory function. Therefore an artificial cell surface (ACS) was prepared as described in materials and methods. […]
To remove unfragmented albumin and enzyme, the sample was ultra filtered through an Amicon Ultra 4 (mw cut-off of 5000) or a Centriplus (mw cut-off 10000) centrifugal filter (Millipore AB, Solna, Sweden). The filtrate, containing fragmented dHSA without enzymes, was collected and diluted with PBS with Ca and Mg (GIBCO).
Buffy coats generated from 450 ml blood each was collected from 4 healthy donors. Erythrocytes were removed by sedimentation on 2% dextran T500 solution (Amersham Pharmacia Biotech AB, Uppsala Sweden) in 0.9% NaCl. Mononuclear cells (PBMC) were then isolated by Ficoll-Paque Plus (GE Healthcare Bioscience AB Sweden) density gradient centrifugation. The PBMC were then suspended in phosphate buffered saline (PBS) containing Ca and Mg (GIBCO) at a concentration of 10×10^6/ml. EZ Link Sulfo-NHS-biotin (Pierce USA) was added at a final concentration of 0.2 mg/ml and the mixture incubated on a shaker at room temperature for 10 min. Excess biotin was then removed by washing the PBMC in PBS. Biotinylated PBMC were then lysed by adding 1.0 ml ice-cold lysing buffer (50 mM Tris-HCL, pH 7.5, with 0.15 M NaCl, 5 mM MgCl2 containing 100 mM Octyl glucoside and 1 mM Phenylmethylsulfonyl fluoride) per 2×10^7 pelleted cells with gentle shaking, then incubated for 30 min. on ice. Debris was removed by centrifugation at 5000×g at 4° C. for 10 min and the supernatants was collected and pooled from all four donors. The lysate was then stored at −70° C. in polypropylene plastic tubes.
This amount of lysate corresponds to 36×10^7 mononuclear cells. It was added to a 1 ml Hitrap Streptavidin HP affinity column (Amersham Biosciences). To block possible remaining free biotin, 5 ml of 0.1 M glycine (Sigma) was added to the column. Unsaturated streptavidin on the column was then reacted with 150 ug biotin (Sigma) in binding buffer. The column was carefully washed with PBS and stored in PBS with 0.1% NaN3 at 4° C. until use.
27 ml biotinylated cell lysate in binding buffer (corresponding to 54×10^7 mononuclear cells) was added to 1.5 ml washed Streptavidin Sepharose HP (Amersham Biosciences). To block possible remaining free biotin, 25 ml of 0.1 M glycine (Sigma) was added to the Streptavidin Sepharose. Unsaturated streptavidin was then reacted with 225 μg biotin (Sigma) in binding buffer. The Streptavidin Sepharose was carefully washed in PBS. One ml of the biotinylated cell lysate coupled Streptavidin Sepharose was then packed in an empty column (Tricorn Empty High Performance Column, Amersham Bioscience) and washed with phosphate buffered saline (PBS) containing Ca and Mg (GIBCO).
The flow-through was collected with consideration taken to void volume and dilution of adsorbed sample by collecting in small portions of 0.2 ml. Thirty ul of each sample, including a control sample that has not been adsorbed, were dried in a Speed-Vac centrifuge.
Dried samples were reconstituted in 10 ul of 0.1% TFA. Zip Tip pipette tips (Millipore, USA) containing C18 reversed-phase media were used for desalting reconstituted samples. […] For the analysis of samples in the mass range 1500-9000 Da, one μl of each Zip Tip eluted sample was mixed with 1 μl of sinapinic acid ([…]). […] Mass identity search of resulting spectra was performed in the SwissProt or NCBI databases using MS-Fit.

PBMCs = experiment: PHA-induced proliferation of PBMC in the presence of albumin peptides and/or dHSA; assay type: cell-based, human
Excerpt: Venous blood was drawn from healthy volunteers or from cancer patients in glass vacuum tubes with acid dextrose citrate solution A as anti-coagulant (Vacutainer, Becton Dickinson, Franklin Lakes, N.J.). Erythrocytes were removed by sedimentation on 2% dextran T500 solution (Amersham Pharmacia Biotech AB, Uppsala, Sweden) in 0.9% NaCl (this step was omitted for cultures with PHA-stimulation-see below). […] For cell cultures with PHA-stimulation, PBMC were washed in Hank's Balanced Salt Solution (HBSS) with 10% autologous plasma instead of RPMI/2% HSA. […] The cell suspension was stained with Turk's solution and the number of lymphocytes and monocytes in the PBMC preparation were counted in a hemocytometer. PBMCs were suspended in RPMI/2% HSA and the cell concentration adjusted to 5×10^5 lymphocytes/ml.
100 μl of the cell suspension were seeded into round-bottomed microtiter plates (Corning, N.Y., USA) followed by 100 μl of culture medium consisting of RPMI 1640 (Flow Laboratories, Irvine, Scotland) supplemented with 200 IU/ml Penicillin, 200 μg/ml Streptomycin (Flow laboratories) and 20% heat inactivated autologous serum. Phytohemagglutinin (PHA-P, Sigma Chemical Co, St. Louis, Mo.) at a final concentration of 5 or 10 μg/ml was then added.
All culture conditions were set up in triplicate wells. […] Mean values of disintegrations per minute (dpm) of triplicates were used for the calculations.

PBMC = experiment: LPS-induced IL-6 production by PBMC, effect of peptides; assay type: cell-based, human; settings: PBMCs from one healthy control; lowest peptide concentration
Procedure: 100 μl of culture medium consisting of RPMI1640 supplemented with 200 IU/ml penicillin, 200 μg/ml streptomycin, 4 mM L-glutamine (Sigma Chemical, Mo., US) and 20% fresh heat-inactivated autologous serum were added to un-coated or -pre-coated microtiter plates followed by 100 μl of PBMC suspension (5×10^4 lymphocytes) in RPMI/2% HSA with peptides at the indicated concentrations. Lipoplysaccharide (LPS, Sigma Chemical Co, MO, US) was added at a final concentration of 0.05 ng/ml. […] All assay conditions were set up in triplicate wells. Supernatants (SNs) were harvested after 24 hrs and residual cells were removed by centrifugation in a refrigerated centrifuge (Beckman) at 2600×g for 5 minutes. SNs were frozen and stored at −70° C. IL-6 in cell culture SNs was measured by ELISA using the DuoSet® ELISA development kit for human IL-6 (R&D Systems Europe, Ltd., Abingdon, UK) following the manufacturer's recommended procedures. The lower limit of detection was 3.1 pg/ml. Samples were analysed as mean of triplicate wells.

[2] = Table 5 A, peptides generated by trypsin degradation of dHSA
[3] = PHA 5 μg/ml, peptides 10 μg/ml, 5 healthy controls and 4 patients
[4] = patient P46, lowest peptide concentration
[5] = peptides 10 μg/ml, lower dHSA concentrations
[6] = peptides 10 μg/ml, two highest dHSA concentrations
[7] = Table 6 B, ASP-DHSA, molecular weight 3200-9000 Da
[8] = Table 5 B, trypsin peptides selected for synthesis

## AAFTECCQAADK [(K)AAFTECCQAADK (A), tryptic peptide of dHSA]
[1]; [2]
  Per cent adsorbed: 0.29 Per cent

## AVMDDFAAFVEK [570-581, tryptic peptide of dHSA]
[1]; [2]
  Per cent adsorbed: 0.23 Per cent

## CCAAADPHECYAK [384-396, tryptic peptide of dHSA]
[1]; [2]
  Per cent adsorbed: 0.32 Per cent

## DDKETCFAEEGKKLVAASQAALGL [ASP-N fragment of dHSA]
[1]; ASP-DHSA
  Per cent adsobed: 1.00 Per cent

## DETYVPKEFNAETFTHA [ASP-N fragment of dHSA]
[1]; ASP-DHSA
  Per cent adsobed: 0.86 Per cent

## DHVKLVNEVTEFAKTCVA [ASP-N fragment of dHSA]
[1]; ASP-DHSA
  Per cent adsobed: 1.00 Per cent

## DKLCTVATLRETYGEM [ASP-N fragment of dHSA]
[1]; ASP-DHSA
  Per cent adsobed: 0.65 Per cent

## DRVTKCCTESLVNRRPCFSALEV [ASP-N fragment of dHSA]
[1]; ASP-DHSA
  Per cent adsobed: 0.87 Per cent

## DSISSKLKECCEKPLLEKSHCIAEVEN [ASP-N fragment of dHSA]
[1]; ASP-DHSA
  Per cent adsobed: 0.65 Per cent

## ELFEQLGEYKF [peptide 2608]
PBMCs; [3]
  effect on PHA induced proliferation of PBMCs: stimulatory effect in ¼ controls whereas ¾ patients were stimulated
PBMCs; [4]
  effect on PHA induced proliferation of PBMCs: clear stimulatory activity
PBMCs; [5]
  effect on dHSA enhanced PHA induced proliferation: stimulated the proliferative rate
PBMCs; [6]
  effect on dHSA enhanced PHA induced proliferation: significantly inhibited the stimulatory activity
PBMC
  effect on LPS induced IL-6 production: inhibitory

## ETYGEMADCCAK [106-117, tryptic peptide of dHSA]
[1]; [2]
  Per cent adsorbed: -0.08 Per cent

## FKDLGEENFK [(R)FKDLGEENFK (A), tryptic peptide of dHSA]
[1]; [2]
  Per cent adsorbed: 0.08 Per cent

## ICTLSEKERQIKKQ TALVELVKHK PKATKEQLKA VM (ICTLSEKERQIKKQTALVELVKHKPKATKEQLKAVM) [ASP-N fragment of dHSA]
[1]; [7]
  Per cent adsorbed: 1.00 Per cent

## KLCT VATLRETYGE MA DCCAKQEP ERNECFLQHK (KLCTVATLRETYGEMADCCAKQEPERNECFLEHK; HOMO SAPIENS) [ASP-N fragment of dHSA]
[1]; [7]
  Per cent adsorbed: 1.00 Per cent

## KLVNEVTEFAKT [peptide 2604]
PBMC
  effect on LPS induced IL-6 production: stimulatory

## KYLYEIAR [(K)KYLYEIAR (R), tryptic peptide of dHSA]
[1]; [2]
  Per cent adsorbed: 0.71 Per cent
[1]; [8]
  Per cent adsorbed: 0.71 Per cent

## LAKYICE NQDSISSKLK ECCEKPLLEK SHCIAEVEN (LAKYICENQDSISSKLKECCEKPLLEKSHCIAEVEN) [ASP-N fragment of dHSA]
[1]; [7]
  Per cent adsorbed: 1.00 Per cent

## LGE ENFKALVLIAFAQYLQQCPFEDHVKLVNEVTEFAKTCVA (LGEENFKALVLIAFAQYLQQCPFEDHVKLVNEVTEFAKTCVA; HOMO SAPIENS) [ASP-N fragment of dHSA]
[1]; [7]
  Per cent adsorbed: 1.00 Per cent

## LKECCEKPLLEK [299-310, tryptic peptide of dHSA]
[1]; [2]
  Per cent adsorbed: 0.36 Per cent

## NECFLQHK [(R)NECFLQHK (D), tryptic peptide of dHSA]
[1]; [2]
  Per cent adsorbed: 0.22 Per cent

## NEETFLKKYLYE [peptide 2605]
PBMCs; PBMCs from K92, three peptide concentrations
  effect on PHA induced proliferation of PBMCs: biphasic response pattern
PBMCs; PBMCs from two healthy controls, two PHA concentrations
  effect on dHSA modulated PHA stimulated proliferation: inhibited the stimulatory activity of dHSA
PBMCs; [3]
  effect on PHA induced proliferation of PBMCs: inhibitory or stimulatory effects in one control each and one patient each
PBMCs; [4]
  effect on PHA induced proliferation of PBMCs: clear stimulatory activity
PBMCs; [5]
  effect on dHSA enhanced PHA induced proliferation: stimulated the proliferative rate
PBMCs; [6]
  effect on dHSA enhanced PHA induced proliferation: significantly inhibited the stimulatory activity

## QEPERNECFLQHK [(K)QEPERNECFLQHK (D), tryptic peptide of dHSA]
[1]; [2]
  Per cent adsorbed: 0.26 Per cent and 0.18 Per cent

## QNCELFEQLGEYK [414-426, tryptic peptide of dHSA]
[1]; [2]
  Per cent adsorbed: 0.20 Per cent
[1]; [8]
  Per cent adsorbed: 0.20 Per cent

## RPCFSALEVDETYVPK [tryptic peptide of dHSA]
[1]; [2]
  Per cent adsorbed: 0.42 Per cent

## RVTKC CTESLVNRRPCFSALEVDETYVPKEFNAETFTFHA (RVTKCCTESLVNRRPCFSALEVDETYVPKEFNAETFTFHA; HOMO SAPIENS) [ASP-N fragment of dHSA]
[1]; [7]
  Per cent adsorbed: 1.00 Per cent

## SISSKLKECCEKPLLEK SHClAEVEN DEMPA (SISSKLKECCEKPLLEKSHCIAEVENDEMPA; HOMO SAPIENS) [ASP-N fragment of dHSA]
[1]; asparaginase degraded dHSA
  binding to ACS: contradictory results

## SLHTLFGDK [089-097, tryptic peptide of dHSA]
[1]; [2]
  Per cent adsorbed: 0.36 Per cent

## VF LGMFLYEYARRHPDYSVVLLLRLAKTYETTLEKCCAAA (VFLGMFLYEYARRHPDYSVVLLLRLAKTYETTLEKCCAAA; HOMO SAPIENS) [ASP-N fragment of dHSA]
[1]; [7]
  Per cent adsorbed: 1.00 Per cent

## VHTECCHGDLLECADDR [tryptic peptide of dHSA]
[1]; [2]
  Per cent adsorbed: 0.13 Per cent

## VPQVSTPTLVEVSR [tryptic peptide of dHSA]
[1]; [2]
  Per cent adsorbed: 0.59 Per cent

## YICENQDSISSK [287-298, tryptic peptide of dHSA]
[1]; [2]
  Per cent adsorbed: 0.03 Per cent

## YKAAFTECCQAADK [tryptic peptide of dHSA]
[1]; [2]
  Per cent adsorbed: -0.37 Per cent

## YLSVVLNQLCVLHEK TPVS DRVTKC CTESLVNRRP CFSALEV
[1]; [7]
  Per cent adsorbed: 0.37 Per cent

## YSVVLL LRLAKTYETT LEKCCAAADP HECYAKVF (YSVVLLLRLAKTYETTLEKCCAAADPHECYAKVF; HOMO SAPIENS) [ASP-N fragment of dHSA]
[1]; [7]
  Per cent adsorbed: 1.00 Per cent
